Results from paper PMC7735735, “Store-Operated Calcium Entry as a Therapeutic Target in Acute Pancreatitis: Discovery and Development of Drug-Like SOCE Inhibitors” (Journal of Medicinal Chemistry, 2020).
Where two headings read alike, the source gives them in different places.

Tested on: SOCE
Test: SOCE inhibition in HEK cells by fluorescence microscopy (calcium imaging)
Format: cell-based, human
Conditions: for inhibition at 10 µM / inhibition at 3 µM: Homo sapiens; for inhibition at 10 µM: negative value = increased Ca2+ entry vs control; for AUC, peak amplitude, and slope of the Ca2+-rise: selected compounds, Figure S1
Experimental: With these two compounds in hand, two click reactions were performed and compounds 9 and 18 (Table 1), displaying the same substructures as the reference compound Synta66, were obtained with a yield of 31 and 60%, respectively. 9 and 18 were tested for activity on SOCE in HEK cells, a human embryonic kidney (HEK) cell line, by fluorescence microscopy, as described elsewhere.[16] After 600 s, Ca^2+ was added and intracellular levels were measured.
Screening, dose–response experiments, and calcium imaging experiments were performed in HEK cells (ATCC, Rock, ville, MD, USA), as already reported elsewhere.[16]

[1] = HEK293, supplementary CSV, HEK cells, read-out: % SOCE Inhibition (3 µM)

| SMILES | inhibition at 10 µM (HEK293, HEK cells, 10 μM) | AUC, peak amplitude, and slope of the Ca2+-rise (HEK cells) | effect on SOCE, in words (HEK cells) | also measured |
| --- | --- | --- | --- | --- |
| COc1ccc(OC)c(-c2ccc(-c3cn(-c4cccc(C(=O)O)c4)nn3)cc2)c1 [Compound 23, 3-(4-(2′,5′-Dimethoxy-[1,1′-biphenyl]-4-yl)-1H-1,2,3-triazol-1-yl)benzoic Acid] | > 70% | – | – | AUC and peak amplitude of the Ca2+-rise vs control (HEK cells, 10 μM): significantly reduced AUC and peak amplitude |
| COc1cccc(-c2ccc(-c3cn(-c4cccc(C(=O)O)c4)nn3)cc2)c1OC [Compound 50, 3-(4-(2′,3′-Dimethoxy-[1,1′-biphenyl]-4-yl)-1H-1,2,3-triazol-1-yl)benzoic Acid] | – | induced a drop in the three parameters | – | – |
| COc1ccc(OC)c(-c2ccc(-n3cc(-c4ccncc4)nn3)cc2)c1 [Compound 10, 4-(1-(2′,5′-Dimethoxy-[1,1′-biphenyl]-4-yl)-1H-1,2,3-triazol-4-yl)pyridine] | -12.8 ± 14.4% | – | not able to reliably inhibit SOCE | inhibition at 3 µM [1]: -12.8 ± 14.4% |
| COc1ccc(F)c(-c2ccc(-n3cc(-c4cccc(C(=O)O)c4)nn3)cc2)c1 [Compound 40, 3-(1-(2′-Fluoro-5′-methoxy-[1,1′-biphenyl]-4-yl)-1H-1,2,3-triazol-4-yl)benzoic Acid] | – | induced a drop in the three parameters | – | – |
| COc1ccc(OC)c(-c2ccc(-n3cc(-c4cccc(C(=O)O)c4)nn3)cc2)c1 [Compound 14, 3-(1-(2′,5′-Dimethoxy-[1,1′-biphenyl]-4-yl)-1H-1,2,3-triazol-4-yl)benzoic Acid] | > 70% | – | – | – |
| O=C(O)c1cccc(-c2cn(-c3ccc(-c4ccc5c(c4)OCCO5)cc3)nn2)c1 [Compound 38, 3-(1-(4-(2,3-Dihydrobenzo[b][1,4]dioxin-6-yl)phenyl)-1H-1,2,3-triazol-4-yl)benzoic Acid] | – | induced a drop in the three parameters | – | – |
| COc1cccc(-c2ccc(-n3cc(-c4cccc(C(=O)O)c4)nn3)cc2)c1 [Compound 31, 3-(1-(3′-Methoxy-[1,1′-biphenyl]-4-yl)-1H-1,2,3-triazol-4-yl)benzoic Acid] | – | induced a drop in the three parameters | – | – |
| COc1ccc(F)c(-c2ccc(-c3cn(-c4cccc(C(=O)O)c4)nn3)cc2)c1 [Compound 56, 3-(4-(2′-Fluoro-5′-methoxy-[1,1′-biphenyl]-4-yl)-1H-1,2,3-triazol-1-yl)benzoic Acid] | – | induced a drop in the three parameters | – | – |
| COC(=O)c1cc(-n2cc(-c3ccc(-c4cc(OC)ccc4OC)cc3)nn2)ccn1 [Compound 21, Methyl 4-(4-(2′,5′-Dimethoxy-[1,1′-biphenyl]-4-yl)-1H-1,2,3-triazol-1-yl)picolinate] | > 70% | – | – | – |
| COc1ccc(OC)c(-c2ccc(-n3cc(-c4ccncc4F)nn3)cc2)c1 [Compound 9, 4-(1-(2′,5′-Dimethoxy-[1,1′-biphenyl]-4-yl)-1H-1,2,3-triazol-4-yl)-3-fluoropyridine] | – | – | not able to reliably inhibit SOCE | – |
| COc1cccc(OC)c1-c1ccc(-c2cn(-c3cccc(C(=O)O)c3)nn2)cc1 [Compound 47, 3-(4-(2′,6′-Dimethoxy-[1,1′-biphenyl]-4-yl)-1H-1,2,3-triazol-1-yl)benzoic Acid] | – | – | positive modulator of SOCE | AUC of calcium entry and peak amplitude vs control (HEK cells, 3 μM): significantly increased the AUC of calcium entry and the peak amplitude; slope of the Ca2+-rise vs control (HEK cells, 3 μM): absence of effect on slope; inhibition at 3 µM (HEK293, HEK cells, 3 μM, negative value = increased SOCE, read-out: % SOCE inhibition (3 μM)): -22.8 ± 0.9% |
| COc1ccc(OC)c(-c2ccc(-n3cc(-c4cccnc4)nn3)cc2)c1 [Compound 11, 3-(1-(2′,5′-Dimethoxy-[1,1′-biphenyl]-4-yl)-1H-1,2,3-triazol-4-yl)pyridine] | -14 ± 31.9% | – | not able to reliably inhibit SOCE | inhibition at 3 µM [1]: -14 ± 31.9% |
| COc1ccc(OC)c(-c2ccc(-n3cc(-c4ccnc(C(=O)O)c4)nn3)cc2)c1 [Compound 13, 4-(1-(2′,5′-Dimethoxy-[1,1′-biphenyl]-4-yl)-1H-1,2,3-triazol-4-yl)picolinic Acid] | > 70% | – | – | – |
